Test results published in paper PMC6355801, “The compound TB47 is highly bactericidal against Mycobacterium ulcerans in a Buruli ulcer mouse model” (Nature Communications, 2019).
Values after ≈ are worked out from the molar mass of the structure shown. Like-named read-outs stand apart in the source and are kept apart here.

Assays:
M. ulcerans = format: cell-based, Mycobacterium ulcerans
M. marinum = format: cell-based, Mycobacterium marinum
Klebsiella pneumoniae = assay: MIC, standard broth dilution assay (CLSI); format: cell-based; settings: 3 clinical isolates
CYP 2D6 = CYP 2D6 (Homo sapiens, UniProt P10635); format: in vitro ADME; settings: read-out: CYP Inhibition (IC50)
Sequence of CYP 2D6 (P10635 whole entry): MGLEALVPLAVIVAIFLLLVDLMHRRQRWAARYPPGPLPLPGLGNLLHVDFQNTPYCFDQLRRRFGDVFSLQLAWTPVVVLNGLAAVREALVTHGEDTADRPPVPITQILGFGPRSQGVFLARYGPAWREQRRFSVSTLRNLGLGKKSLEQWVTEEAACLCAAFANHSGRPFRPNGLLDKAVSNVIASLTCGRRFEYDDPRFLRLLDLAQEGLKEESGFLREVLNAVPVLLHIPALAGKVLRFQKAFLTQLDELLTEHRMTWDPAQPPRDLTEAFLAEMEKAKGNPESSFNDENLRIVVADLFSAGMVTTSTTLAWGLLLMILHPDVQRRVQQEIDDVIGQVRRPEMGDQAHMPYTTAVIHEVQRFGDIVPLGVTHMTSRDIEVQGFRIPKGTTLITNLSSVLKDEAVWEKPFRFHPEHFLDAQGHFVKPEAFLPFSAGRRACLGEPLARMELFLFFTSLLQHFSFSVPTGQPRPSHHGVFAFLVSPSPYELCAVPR

[1] = format: in vitro ADME, Mouse
From the text: (§1) Supplement 41467_2019_8464_MOESM1_ESM.docx, table 4: Table 2-3 Metabolic stability | column: T1/2 (min); Clint In Vitro (mL min^-1 gprot^-1); Clint In Vivo Extpl (mL min^-1); Clint Hep In Vivo Extpl (mL min^-1); Stability

[2] = format: in vitro ADME, Rat
From the text: as §1

[3] = format: in vitro ADME, Dog
From the text: as §1

Candida albicans = assay: MIC, standard broth dilution assay (CLSI); format: cell-based; settings: 2 clinical isolates
CYP 1A2 = CYP 1A2 (Homo sapiens, UniProt P05177); assay: CYP inhibition; format: in vitro ADME
Sequence of CYP 1A2 (P05177 whole entry): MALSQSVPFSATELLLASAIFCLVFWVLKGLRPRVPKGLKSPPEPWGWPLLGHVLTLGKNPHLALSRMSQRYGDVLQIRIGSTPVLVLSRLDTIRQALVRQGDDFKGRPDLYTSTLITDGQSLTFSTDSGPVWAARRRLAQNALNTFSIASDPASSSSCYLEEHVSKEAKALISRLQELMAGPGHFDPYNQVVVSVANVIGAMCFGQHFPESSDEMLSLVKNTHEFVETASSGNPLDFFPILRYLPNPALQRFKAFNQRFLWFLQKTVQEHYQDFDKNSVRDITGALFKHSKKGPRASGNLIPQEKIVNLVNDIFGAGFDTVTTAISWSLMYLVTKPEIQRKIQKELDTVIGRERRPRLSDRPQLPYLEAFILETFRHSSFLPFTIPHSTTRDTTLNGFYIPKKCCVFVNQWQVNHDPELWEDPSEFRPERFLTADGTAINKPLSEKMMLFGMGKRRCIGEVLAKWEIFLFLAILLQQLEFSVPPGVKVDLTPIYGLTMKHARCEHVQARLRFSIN

hERG = hERG (Homo sapiens, UniProt Q12809); assay: hERG inhibition; format: biochemical
Sequence of hERG (Q12809 whole entry): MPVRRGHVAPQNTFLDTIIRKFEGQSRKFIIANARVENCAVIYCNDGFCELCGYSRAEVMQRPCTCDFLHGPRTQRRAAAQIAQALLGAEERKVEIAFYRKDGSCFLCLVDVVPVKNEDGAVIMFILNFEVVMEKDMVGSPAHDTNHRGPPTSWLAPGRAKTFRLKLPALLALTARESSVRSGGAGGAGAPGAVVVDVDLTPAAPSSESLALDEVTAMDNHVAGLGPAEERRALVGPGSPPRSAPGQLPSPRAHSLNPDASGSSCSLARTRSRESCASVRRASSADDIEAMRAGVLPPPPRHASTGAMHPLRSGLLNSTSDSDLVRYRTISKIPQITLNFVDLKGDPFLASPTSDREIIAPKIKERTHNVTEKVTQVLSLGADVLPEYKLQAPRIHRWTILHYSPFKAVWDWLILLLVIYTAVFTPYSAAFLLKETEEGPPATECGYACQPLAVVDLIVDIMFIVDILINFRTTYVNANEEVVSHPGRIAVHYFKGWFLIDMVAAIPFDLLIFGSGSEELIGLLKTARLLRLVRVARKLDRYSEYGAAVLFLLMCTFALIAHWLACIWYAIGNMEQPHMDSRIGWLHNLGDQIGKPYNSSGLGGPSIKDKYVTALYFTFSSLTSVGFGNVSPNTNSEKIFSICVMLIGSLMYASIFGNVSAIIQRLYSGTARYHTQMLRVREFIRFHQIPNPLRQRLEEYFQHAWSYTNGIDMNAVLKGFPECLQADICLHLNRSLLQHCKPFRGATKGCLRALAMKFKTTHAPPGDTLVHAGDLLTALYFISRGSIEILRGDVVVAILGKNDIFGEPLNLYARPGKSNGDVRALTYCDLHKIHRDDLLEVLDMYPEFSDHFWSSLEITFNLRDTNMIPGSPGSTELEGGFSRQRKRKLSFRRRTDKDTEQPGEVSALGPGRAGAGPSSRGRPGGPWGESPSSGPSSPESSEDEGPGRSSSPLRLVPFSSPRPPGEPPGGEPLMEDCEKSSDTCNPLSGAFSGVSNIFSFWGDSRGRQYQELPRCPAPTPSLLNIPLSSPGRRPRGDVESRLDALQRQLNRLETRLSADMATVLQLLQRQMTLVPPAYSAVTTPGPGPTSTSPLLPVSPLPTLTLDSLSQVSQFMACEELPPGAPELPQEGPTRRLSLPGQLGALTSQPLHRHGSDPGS

Staphylococcus aureus = assay: MIC, standard broth dilution assay (CLSI); format: cell-based; settings: 1 clinical isolate
Enterococcus faecium = assay: MIC, standard broth dilution assay (CLSI); format: cell-based; settings: 1 clinical isolate
CYP 3A4 = CYP 3A4 (Homo sapiens, UniProt P08684); settings: read-out: CYP Inhibition (IC50)
Sequence of CYP 3A4 (P08684 whole entry): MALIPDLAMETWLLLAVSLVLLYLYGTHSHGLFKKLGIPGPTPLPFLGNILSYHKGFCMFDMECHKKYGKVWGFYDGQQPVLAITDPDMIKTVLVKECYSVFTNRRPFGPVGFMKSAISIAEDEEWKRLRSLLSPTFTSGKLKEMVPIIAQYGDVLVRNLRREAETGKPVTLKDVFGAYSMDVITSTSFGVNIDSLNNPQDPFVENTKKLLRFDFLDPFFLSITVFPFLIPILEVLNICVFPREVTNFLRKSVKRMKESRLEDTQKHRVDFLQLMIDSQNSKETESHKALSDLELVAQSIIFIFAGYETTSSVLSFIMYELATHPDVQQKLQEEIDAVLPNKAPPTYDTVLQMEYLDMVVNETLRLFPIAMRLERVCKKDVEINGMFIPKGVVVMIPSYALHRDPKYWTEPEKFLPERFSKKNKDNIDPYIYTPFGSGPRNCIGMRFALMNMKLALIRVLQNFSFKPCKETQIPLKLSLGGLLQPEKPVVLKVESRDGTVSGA

M. smegmatis = assay: microbe, parasite or virus in culture; format: cell-based, Mycobacterium smegmatis
[4] = test system: most of the clinical strains; assay: MIC, standard broth dilution assay (CLSI), summary for clinical strains; format: cell-based
Enterococcus faecalis = assay: MIC, standard broth dilution assay (CLSI); format: cell-based; settings: 1 clinical isolate
[5] = test system: Mycobacterium bovis BCG Tice; format: cell-based; settings: 1 strain
Pseudomonas aeruginosa = assay: MIC, standard broth dilution assay (CLSI); format: cell-based; settings: 3 clinical isolates
Salmonella enteriditis = assay: MIC, standard broth dilution assay (CLSI); format: cell-based; settings: 1 clinical isolate
Acinetobacter baumannii = assay: MIC, standard broth dilution assay (CLSI); format: cell-based; settings: 3 clinical isolates
[6] = test system: M. ulcerans strains 1059 and 1615; assay: MIC on 7H11 agar plates; format: cell-based; settings: Mycobacterium ulcerans, 2 strains (1059 and 1615)
[7] = format: in vitro ADME, Human
From the text: as §1

[8] = format: in vitro ADME, Monkey
From the text: as §1

[9] = design: species or system BALB/c mice; settings: mouse, in vivo
Protocol: BALB/c mice were given 2 mg kg^−1 TB47 intravenously or 10 mg kg^−1 orally. […] Footpads and lung tissues were collected at 6, 12, 24, and 48 h post-dose for oral group. After extraction and centrifuge at 4 °C, TB47 concentrations were determined by Liquid Chromatograph-Mass Spectrometer (LC-MS).

CYP 2C9 = CYP 2C9 (Homo sapiens, UniProt P11712); assay: CYP inhibition; format: in vitro ADME
Sequence of CYP 2C9 (P11712 whole entry): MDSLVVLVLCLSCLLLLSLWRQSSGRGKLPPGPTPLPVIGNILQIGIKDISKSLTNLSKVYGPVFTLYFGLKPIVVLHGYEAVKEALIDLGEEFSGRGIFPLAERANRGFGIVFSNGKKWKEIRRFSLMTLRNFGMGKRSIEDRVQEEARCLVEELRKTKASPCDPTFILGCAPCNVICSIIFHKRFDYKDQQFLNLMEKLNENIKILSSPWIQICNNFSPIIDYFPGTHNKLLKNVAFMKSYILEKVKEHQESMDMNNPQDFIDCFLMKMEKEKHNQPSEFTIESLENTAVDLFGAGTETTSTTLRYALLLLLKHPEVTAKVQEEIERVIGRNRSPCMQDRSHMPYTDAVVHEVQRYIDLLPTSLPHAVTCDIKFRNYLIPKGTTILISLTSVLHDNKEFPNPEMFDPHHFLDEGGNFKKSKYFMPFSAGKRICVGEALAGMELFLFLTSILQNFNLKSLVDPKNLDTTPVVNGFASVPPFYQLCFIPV

[10] = Oral tolerability in mice; format: in vivo
THP-1 cell = assay: Cytotoxicity; format: cell-based
M. ulcerans (AlMu) = assay: Time kill assay and CFU-based MBC in liquid culture; format: cell-based, Mycobacterium ulcerans
Protocol: Serial dilutions of drug-containing solutions and autoluminescent mycobacteria broth culture (OD600 of 0.3 to 1.0) were prepared. RLU counts from the same batch of triplicate samples were measured according to the designed time points. Ninety-six-well plates were measured as rendering the amount of light by using a Veritas™ Microplate Luminometer Operating Manual (Turner BioSystems). MIClux was determined as the lowest concentration that can inhibit > 90% RLUs compared with that from the untreated controls[6],[18]. The time-killing curves and MIClux of autoluminescent strains were determined by detecting RLUs from these samples. For M. ulcerans and M. marinum strains, the incubation time for MIClux reading was 7 days and 3 days, respectively. The minimum bactericidal concentration (MBC) was defined as the lowest concentration of drug that killed ≥ 99% of the CFU compared with the CFU count of the initial inoculum used for the liquid activity assays, which was adopted from reference. […] The concentrations used were twofold series of dilutions for this purpose. The incubation time for RLU reading was 14 days for the MBD experiment and the light from each 1.5 mL tube containing total 500 μL culture was detected using Promega GloMax 20/20n. […] The concentrations used were fivefold series of dilutions for this purpose. Each above experiment was performed in triplicate (three independent experiments) or more by independent persons and from three or more independent cultures. The representative results are shown.

[11] = not told
Mycobacterium abscessus = assay: MIC, standard broth dilution assay (CLSI); format: cell-based; settings: 20 clinical isolates
CYP 2C19 = CYP 2C19 (Homo sapiens, UniProt P33261); format: in vitro ADME; settings: read-out: CYP Inhibition (IC50)
Sequence of CYP 2C19 (P33261 whole entry): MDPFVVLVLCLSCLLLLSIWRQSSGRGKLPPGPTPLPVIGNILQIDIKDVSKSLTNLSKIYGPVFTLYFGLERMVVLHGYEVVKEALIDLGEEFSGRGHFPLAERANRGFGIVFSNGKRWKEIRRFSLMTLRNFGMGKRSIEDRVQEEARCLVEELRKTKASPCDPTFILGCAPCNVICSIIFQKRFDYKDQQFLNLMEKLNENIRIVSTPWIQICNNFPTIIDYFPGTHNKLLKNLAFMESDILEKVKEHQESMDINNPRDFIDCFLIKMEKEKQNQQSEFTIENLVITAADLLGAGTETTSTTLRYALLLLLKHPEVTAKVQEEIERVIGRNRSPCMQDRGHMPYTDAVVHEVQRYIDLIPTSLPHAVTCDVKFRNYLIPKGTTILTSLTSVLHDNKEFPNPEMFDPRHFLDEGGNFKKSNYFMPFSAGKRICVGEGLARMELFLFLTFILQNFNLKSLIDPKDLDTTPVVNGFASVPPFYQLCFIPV

Escherichia coli = assay: MIC, standard broth dilution assay (CLSI); format: cell-based; settings: 5 clinical isolates
[12] = Long-term administration study in rats; format: in vivo; settings: 10, 30, or 100 mg kg^−1 orally daily for 30 days, male and female rats

`CO[C@H]1/C=C/O[C@@]2(C)Oc3c(C)c(O)c4c(O)c(c(/C=N/N5CCN(C)CC5)c(O)c4c3C2=O)NC(=O)/C(C)=C\C=C\[C@H](C)[C@H](O)[C@@H](C)[C@@H](O)[C@@H](C)[C@H](OC(C)=O)[C@@H]1C` [RIF, rifampin] gave an MIClux (M. ulcerans; M. ulcerans Wild-type (AlMu 1059)) of 0.06 to 0.25 µg/mL, an MIClux (M. ulcerans; M. ulcerans Wild-type:: qcrB^WT, over-expression of wild-type qcrB) of 0.06 to 0.25 µg/mL and an MIClux (M. ulcerans; M. ulcerans Wild-type:: vector (empty plasmid)) of 0.06 to 0.25 µg/mL. It also gave an MIClux (M. marinum; M. marinum Wild-type (Autoluminescent strain)) of 0.25 to 1.0 µg/mL, an MIClux (M. marinum; M. marinum Wild-type:: qcrB^WT, over-expression of wild-type qcrB) of 0.25 to 1.0 µg/mL and an MIClux (M. marinum; M. marinum Wild-type:: vector (empty plasmid)) of 0.25 to 1.0 µg/mL.
In the case of `COc1ccn2nc(C)c(C(=O)NCc3ccc(N4CCC(c5ccc(OC(F)(F)F)cc5)CC4)cc3)c2c1` [TB47], the MIC (Klebsiella pneumoniae) is reported as over 128 µg/mL, the IC50 (CYP 2D6) is reported as over 10 µM and the Stability [1] is reported as “High”. The “Clint Hep In Vivo Extpl” value ([1]; mouse) was 0.8 mL/min, the “Clint In Vitro” value ([1]; mouse) was 16.5 mL min^-1 gprot^-1 and the “Clint In Vivo Extpl” value ([1]; mouse) was 1.1 mL/min. For the same compound, the T1/2 ([1]; mouse) was 2.12 h, the Stability [2] was “High” and the “Clint Hep In Vivo Extpl” value ([2]; rat) was 5.4 mL/min. The “Clint In Vitro” value ([2]; rat) was 16.5 mL min^-1 gprot^-1, the “Clint In Vivo Extpl” value ([2]; rat) was 7.4 mL/min and the T1/2 ([2]; rat) was 2.13 h. The Stability [3] was “High”, the “Clint Hep In Vivo Extpl” value ([3]; dog) was 17.1 mL/min and the “Clint In Vitro” value ([3]; dog) was 3.5 mL min^-1 gprot^-1. The “Clint In Vivo Extpl” value ([3]; dog) was 19.0 mL/min, the T1/2 ([3]; dog) was 9.97 h and the MIC (Candida albicans) was over 128 µg/mL. It also gave an IC50 (CYP 1A2) of over 10 µM, an IC50 (hERG) of over 30 µM and an MIC (Staphylococcus aureus) of over 128 µg/mL. It also gave an MIC (Enterococcus faecium) of over 128 µg/mL, an IC50 (CYP 3A4; 3A4-Midazolam) of over 10 µM and an IC50 (CYP 3A4; 3A4-Testerone) of over 10 µM. It also gave an MIC (M. smegmatis; Mycobacterium smegmatis, 1 strain) of 50 µg/mL (≈ 92.8 µM), an MICs [4] of over 128 µg/mL and an MIC (Enterococcus faecalis) of over 128 µg/mL. The MIC [5] was 0.003 µg/mL (≈ 0.00557 µM), the MIC (Pseudomonas aeruginosa) was over 128 µg/mL and the MIC (Salmonella enteriditis) was over 128 µg/mL. For the same compound, the MIC (Acinetobacter baumannii) was over 128 µg/mL, the MIC [6] was 0.0016 µg/mL (≈ 0.00297 µM) and the Stability [7] was “High”. The “Clint Hep In Vivo Extpl” value ([7]; human) was 0.0 mL/min, the “Clint In Vitro” value ([7]; human) was 0.0 mL min^-1 gprot^-1 and the “Clint In Vivo Extpl” value ([7]; human) was 0.0 mL/min. For the same compound, the T1/2 ([7]; human) was “Stable”, the Stability [8] was “High” and the “Clint Hep In Vivo Extpl” value ([8]; monkey) was 0.1 mL/min. The “Clint In Vitro” value ([8]; monkey) was 0.0 mL min^-1 gprot^-1, the “Clint In Vivo Extpl” value ([8]; monkey) was 0.1 mL/min and the T1/2 ([8]; monkey) was 1555 h. For the same compound, the bioavailability [9] was 38.1%, the “MRT(0-t)” value ([9]; iv, 2 mg/kg) was 14.7 h and the “MRT(0-∞)” value ([9]; iv, 2 mg/kg) was 22.3 h. The “t 1/2z” value ([9]; iv, 2 mg/kg) was 17.7 h, the “MRT(0-t)” value ([9]; po, 10 mg/kg) was 20.2 h and the “MRT(0-∞)” value ([9]; po, 10 mg/kg) was 52.0 h. The “t 1/2z” value ([9]; po, 10 mg/kg) was 35.6 h, the IC50 (CYP 2C9) was over 10 µM and the tolerability ([10]; oral 200 mg kg^−1 daily for 4 weeks, mice) was “well tolerated”. The tolerability ([10]; single oral administration of 2000 mg kg^−1, mice) was “well tolerated”, the IC50 (THP-1 cell) was 50 µM and the “bactericidal activity compared with 0.2 µg mL^−1 rifampin” value (M. ulcerans (AlMu); TB47 at 0.008 µg mL^−1 or higher, time kill assay) was “more potent”. For the same compound, the “minimum bactericidal concentration (MBC)” value (M. ulcerans (AlMu); killed ≥ 99% of CFU of the initial inoculum) was 0.0064 µg/mL (≈ 0.0119 µM), the “concentration demonstrating bactericidal activity” value (M. ulcerans (AlMu); standard time kill assay, AlMu in liquid culture) was at least 0.0016 µg/mL and the “Conclusion: P-gp substrate” value [11] was “Not P-gp substrate”. For the same compound, the “Conclusion: permeability” value [11] was “High permeability”, the “Efflux Ratio” value [11] was 1.07 and the MIC (Mycobacterium abscessus) was over 128 µg/mL. The IC50 (CYP 2C19) was over 10 µM, the MIC (Escherichia coli) was over 128 µg/mL and the IC50 (VERO cell) was over 100 µM. For the same compound, the MIC (M. marinum; Mycobacterium marinum, 1 strain) was 0.001 to 0.008 µg/mL and the tolerability [12] was “well tolerated without any meaningful clinical signs of toxicity”.
In the case of `NNC(=O)c1ccncc1` [isoniazid], the MIC (M. smegmatis; MsmΔcydAB) is reported as 4 µg/mL (≈ 29.2 µM), the MIC (M. smegmatis; MsmΔcydAB::cydAB^Mtb) is reported as 4 µg/mL (≈ 29.2 µM) and the MIC (M. smegmatis; MsmΔcydAB::cydAB^Mu) is reported as 4 µg/mL (≈ 29.2 µM). For the same compound, the MIC (M. smegmatis; Mycolicibacterium smegmatis) was 4 µg/mL (≈ 29.2 µM).
